Here are results for three molecules from patent US9168275B2 (priority 2000, dated 2015).

Structures are written as SMILES.

The target of one data set is tetanus toxin (Clostridium tetani, UniProt P04958). The conditions noted are these: cited from earlier work.
Another data set has as its system clostridia. The conditions noted are these: cited from earlier work.
The subject of data set [1] is children with regressive onset autism. To be noted: in vivo.
For data set [2] the following is noted: in vivo, po; cited from earlier work.
Another data set concerns Bacteroides. To be noted: cited from earlier work.
The test system of data set [3] is person with chronic diarrhea and autism. In kind it is in vivo, human. The procedure: Diarrhea began after three 10 day courses of broad spectrum antimicrobials prescribed over a six week period for “chronic otitis media.” There was no blood or pus in the stool nor associated constitutional symptoms. There was profound behavioral and developmental deterioration, along with emergence of severe autistic features.
A 12 week therapeutic trial of oral vancomycin (125 mg QID) was begun with expanded observations by a pediatric neuropsychologist pre- and post-treatment. At baseline, the child was not on a special diet nor was […] taking any vitamin supplements. Three days after initiation of the vancomycin therapy, a hyperactivity pattern emerged which lasted for four days. […] became affectionate and relatively calm. […] promptly achieved toilet training and increased vocabulary. Follow-up behavioral observations after eight weeks of therapy noted an increase in on-task performance, compliance with parental requests, awareness of environmental surroundings, and persistence when engaging in positive activities. […] The child's educational therapies remained unchanged for both six months before and during the vancomycin trial. […] Though still improved over baseline, […] eventually lost most of the initial gains.

tetanus toxin, sequence (P04958 whole entry, looked up): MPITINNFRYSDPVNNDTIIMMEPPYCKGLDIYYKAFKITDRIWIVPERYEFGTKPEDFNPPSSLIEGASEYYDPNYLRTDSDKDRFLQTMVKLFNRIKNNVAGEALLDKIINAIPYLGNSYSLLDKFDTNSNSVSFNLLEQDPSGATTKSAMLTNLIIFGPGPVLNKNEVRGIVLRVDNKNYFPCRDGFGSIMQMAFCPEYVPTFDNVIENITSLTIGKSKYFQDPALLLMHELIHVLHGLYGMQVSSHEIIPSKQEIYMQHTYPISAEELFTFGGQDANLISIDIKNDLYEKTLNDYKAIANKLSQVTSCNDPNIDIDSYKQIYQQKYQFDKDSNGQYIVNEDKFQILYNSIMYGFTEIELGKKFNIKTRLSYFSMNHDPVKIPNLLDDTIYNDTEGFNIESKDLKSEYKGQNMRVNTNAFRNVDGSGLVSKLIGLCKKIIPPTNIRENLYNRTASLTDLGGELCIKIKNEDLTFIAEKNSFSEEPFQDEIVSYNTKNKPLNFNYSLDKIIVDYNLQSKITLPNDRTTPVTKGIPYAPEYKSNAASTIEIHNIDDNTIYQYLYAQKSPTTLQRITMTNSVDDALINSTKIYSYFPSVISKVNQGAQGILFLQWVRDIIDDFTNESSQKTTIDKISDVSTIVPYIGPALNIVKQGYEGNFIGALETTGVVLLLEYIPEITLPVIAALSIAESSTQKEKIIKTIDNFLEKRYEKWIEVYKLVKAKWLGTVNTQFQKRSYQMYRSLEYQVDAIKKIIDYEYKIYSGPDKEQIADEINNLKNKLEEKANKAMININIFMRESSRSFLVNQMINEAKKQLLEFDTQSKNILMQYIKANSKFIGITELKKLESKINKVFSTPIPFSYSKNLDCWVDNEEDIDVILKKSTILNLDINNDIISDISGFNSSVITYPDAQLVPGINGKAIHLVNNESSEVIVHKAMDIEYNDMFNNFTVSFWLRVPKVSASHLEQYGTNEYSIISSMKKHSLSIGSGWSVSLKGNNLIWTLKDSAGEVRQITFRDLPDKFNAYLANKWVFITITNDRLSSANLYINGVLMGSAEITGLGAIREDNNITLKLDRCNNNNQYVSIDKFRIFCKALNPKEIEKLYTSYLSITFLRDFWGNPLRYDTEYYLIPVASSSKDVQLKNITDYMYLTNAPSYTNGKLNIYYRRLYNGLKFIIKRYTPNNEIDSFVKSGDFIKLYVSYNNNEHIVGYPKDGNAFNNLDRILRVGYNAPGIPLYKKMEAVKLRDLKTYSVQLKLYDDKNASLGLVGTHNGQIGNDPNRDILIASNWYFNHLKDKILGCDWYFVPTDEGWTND

In the case of `C[C@H](CS)C(=O)N1CCC[C@H]1C(=O)O` [Captopril], on tetanus toxin, the “Effect on tetanus toxin in vitro” value is recorded as “inactivates”.
Take `CC1(C)S[C@@H]2[C@H](NC(=O)[C@H](N)c3ccccc3)C(=O)N2[C@H]1C(=O)O` [ampicillin]: the Activity against clostridia entry in the data set on clostridia is listed as “active”.
On to `CN[C@H](CC(C)C)C(=O)N[C@H]1C(=O)N[C@@H](CC(N)=O)C(=O)N[C@H]2C(=O)N[C@H]3C(=O)N[C@H](C(=O)N[C@H](C(=O)O)c4cc(O)cc(O)c4-c4cc3ccc4O)[C@H](O)c3ccc(c(Cl)c3)Oc3cc2cc(c3O[C@@H]2O[C@H](CO)[C@@H](O)[C@H](O)[C@H]2O[C@H]2C[C@](C)(N)[C@H](O)[C@H](C)O2)Oc2ccc(cc2Cl)[C@H]1O` [vancomycin], for which, in data set [1], the “Analog rating scale, improvement in behavior: Wilcoxon Signed Ranks Z” value was −2.9; the “Analog rating scale, improvement in behavior: p” value amounted to 0.003; the “Analog rating scale, improvement in communication: Wilcoxon Signed Ranks Z” value came out at 2.9; the “Analog rating scale, improvement in communication: p” value is given as 0.003. Moreover, in data set [1], the “Analog ratings at long-term follow-up” value was “returned towards baseline”; the “Basic blood, stool and urine tests” value is “unremarkable”; the “Brief (1-4 days) period of hyperactivity: children affected” value is on record as “six”; the “Day of marked lethargy: subjects affected” value was “One”. The “Blinded assessment of coded, paired videotapes: possible deterioration” value in data set [1] (po) is listed as “one”. Also, the “Concentration in the intestines” value in data set [2] is “high concentration”. Moreover, in the data set with Bacteroides, the “Activity against Bacteroides” value is on record as “effective”. The “Repetitive and self-stimulatory behaviors” value in data set [3] (after eight weeks of therapy) is on record as “significant reduction”. The “Course shortly after discontinuation” value in data set [3] (after vancomycin discontinuation) is “behavioral deterioration”. Also, the Clinical response result in data set [3] (oral vancomycin 125 mg QID, 12 weeks) was “rapid and dramatic clinical improvement”. Moreover, the Activity against clostridia entry with clostridia is “effective”.
